Results from patent publication US9113629B2, “4-amino-6-(4-substituted-phenyl)-picolinates and 6-amino-2-(4-substituted-phenyl)-pyrimidine-4-carboxylates and their use as herbicides” (DOW AGROSCIENCES LLC, priority 2013, dated 2015).

Each molecule was assayed on LAMSS (assay: Post-emergent Test III, herbicidal activity in wheat and barley). Conditions: post-emergence, 504 h; 35 g ai/ha; read-out: Visual Growth Reduction (%) 21 Days After Application LAMSS.
Format: in vivo
Method in brief: (§1)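 Plants at the second to third true-leaf stage, grown in a greenhouse at about 18/17 °C with a 14 h photoperiod, were sprayed post-emergence at 187 L/ha with the high rate and ½× to 1/16× serial dilutions in an acetone/DMSO/crop-oil/surfactant carrier. Injury was rated visually at 21 d on a 0–100% scale, and GR20–GR90 were derived by probit analysis.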

| Compound | pest or weed control at 35 g/ha [%] |
| --- | --- |
| COC(=O)c1nc(-c2ccc(I)cc2)c(F)c(N)c1Cl [Compound 118, Methyl 4-amino-6-(4-iodophenyl)-3-chloro-5-fluoropicolinate] | 95 to 100 |
| COC(=O)c1nc(-c2ccc(Br)cc2)c(F)c(N)c1Cl [Compound 138, Methyl 4-amino-6-(4-bromophenyl)-3-chloro-5-fluoropicolinate] | 95 to 100 |
| COC(=O)c1nc(-c2ccc(C#N)cc2)c(F)c(N)c1Cl [Compound 142] | 85 to 94 |

Same assay, conditions: post-emergence, 504 h; 70 g ai/ha; read-out: Visual Growth Reduction (%) 21 Days After Application LAMSS

| Compound | pest or weed control at 70 g/ha [%] |
| --- | --- |
| COC(=O)c1nc(-c2ccc(I)cc2)c(F)c(N)c1Cl [Compound 118, Methyl 4-amino-6-(4-iodophenyl)-3-chloro-5-fluoropicolinate] | 95 to 100 |
| COC(=O)c1nc(-c2ccc(Br)cc2)c(F)c(N)c1Cl [Compound 138, Methyl 4-amino-6-(4-bromophenyl)-3-chloro-5-fluoropicolinate] | 95 to 100 |
| COC(=O)c1nc(-c2ccc(C#N)cc2)c(F)c(N)c1Cl [Compound 142] | 85 to 94 |

Same assay, conditions: post-emergence, 504 h; 140 g ai/ha; read-out: Visual Growth Reduction (%) 21 Days After Application LAMSS

| Compound | pest or weed control at 140 g/ha [%] |
| --- | --- |
| COC(=O)c1nc(-c2ccc(I)cc2)c(F)c(N)c1Cl [Compound 118, Methyl 4-amino-6-(4-iodophenyl)-3-chloro-5-fluoropicolinate] | 95 to 100 |
| COC(=O)c1nc(-c2ccc(Br)cc2)c(F)c(N)c1Cl [Compound 138, Methyl 4-amino-6-(4-bromophenyl)-3-chloro-5-fluoropicolinate] | 95 to 100 |
| COC(=O)c1nc(-c2ccc(C#N)cc2)c(F)c(N)c1Cl [Compound 142] | 85 to 94 |

Same assay, conditions: probit analysis, dose for growth reduction of 50 percent, 21 days after application

| Compound | GR50 LAMSS [g ai/ha] |
| --- | --- |
| COC(=O)c1nc(-c2ccc(I)cc2)c(F)c(N)c1Cl [Compound 118, Methyl 4-amino-6-(4-iodophenyl)-3-chloro-5-fluoropicolinate] | 1 |
| COC(=O)c1nc(-c2ccc(Br)cc2)c(F)c(N)c1Cl [Compound 138, Methyl 4-amino-6-(4-bromophenyl)-3-chloro-5-fluoropicolinate] | 1 |
| COC(=O)c1nc(-c2ccc(C#N)cc2)c(F)c(N)c1Cl [Compound 142] | 0 |

Same assay, conditions: probit analysis, dose for growth reduction of 80 percent, 21 days after application

| Compound | GR80 LAMSS [g ai/ha] |
| --- | --- |
| COC(=O)c1nc(-c2ccc(I)cc2)c(F)c(N)c1Cl [Compound 118, Methyl 4-amino-6-(4-iodophenyl)-3-chloro-5-fluoropicolinate] | 0 |
| COC(=O)c1nc(-c2ccc(Br)cc2)c(F)c(N)c1Cl [Compound 138, Methyl 4-amino-6-(4-bromophenyl)-3-chloro-5-fluoropicolinate] | 1 |
| COC(=O)c1nc(-c2ccc(C#N)cc2)c(F)c(N)c1Cl [Compound 142] | 5 |

The molecules below were run on PAPRH: common poppy (Papaver rhoeas) in the same assay as above. Conditions: Papaver rhoeas, post-emergence, 504 h; 35 g ai/ha; read-out: Visual Growth Reduction (%) 21 Days After Application PAPRH.
Format: in vivo
Method in brief: as §1

| Compound | pest or weed control at 35 g/ha [%] |
| --- | --- |
| COC(=O)c1nc(-c2ccc(I)cc2)c(F)c(N)c1Cl [Compound 118, Methyl 4-amino-6-(4-iodophenyl)-3-chloro-5-fluoropicolinate] | 95 to 100 |
| COC(=O)c1nc(-c2ccc(Br)cc2)c(F)c(N)c1Cl [Compound 138, Methyl 4-amino-6-(4-bromophenyl)-3-chloro-5-fluoropicolinate] | 95 to 100 |
| COC(=O)c1nc(-c2ccc(C#N)cc2)c(F)c(N)c1Cl [Compound 142] | 85 to 94 |

Same assay, conditions: Papaver rhoeas, post-emergence, 504 h; 70 g ai/ha; read-out: Visual Growth Reduction (%) 21 Days After Application PAPRH

| Compound | pest or weed control at 70 g/ha [%] |
| --- | --- |
| COC(=O)c1nc(-c2ccc(I)cc2)c(F)c(N)c1Cl [Compound 118, Methyl 4-amino-6-(4-iodophenyl)-3-chloro-5-fluoropicolinate] | 95 to 100 |
| COC(=O)c1nc(-c2ccc(Br)cc2)c(F)c(N)c1Cl [Compound 138, Methyl 4-amino-6-(4-bromophenyl)-3-chloro-5-fluoropicolinate] | 95 to 100 |
| COC(=O)c1nc(-c2ccc(C#N)cc2)c(F)c(N)c1Cl [Compound 142] | 95 to 100 |

Same assay, conditions: Papaver rhoeas, post-emergence, 504 h; 140 g ai/ha; read-out: Visual Growth Reduction (%) 21 Days After Application PAPRH

| Compound | pest or weed control at 140 g/ha [%] |
| --- | --- |
| COC(=O)c1nc(-c2ccc(I)cc2)c(F)c(N)c1Cl [Compound 118, Methyl 4-amino-6-(4-iodophenyl)-3-chloro-5-fluoropicolinate] | 95 to 100 |
| COC(=O)c1nc(-c2ccc(Br)cc2)c(F)c(N)c1Cl [Compound 138, Methyl 4-amino-6-(4-bromophenyl)-3-chloro-5-fluoropicolinate] | 95 to 100 |
| COC(=O)c1nc(-c2ccc(C#N)cc2)c(F)c(N)c1Cl [Compound 142] | 95 to 100 |

Same assay, conditions: probit analysis, dose for growth reduction of 50 percent, 21 days after application

| Compound | GR50 PAPRH [g ai/ha] |
| --- | --- |
| COC(=O)c1nc(-c2ccc(I)cc2)c(F)c(N)c1Cl [Compound 118, Methyl 4-amino-6-(4-iodophenyl)-3-chloro-5-fluoropicolinate] | 1 |
| COC(=O)c1nc(-c2ccc(Br)cc2)c(F)c(N)c1Cl [Compound 138, Methyl 4-amino-6-(4-bromophenyl)-3-chloro-5-fluoropicolinate] | 1 |
| COC(=O)c1nc(-c2ccc(C#N)cc2)c(F)c(N)c1Cl [Compound 142] | 1 |

Same assay, conditions: probit analysis, dose for growth reduction of 80 percent, 21 days after application

| Compound | GR80 PAPRH [g ai/ha] |
| --- | --- |
| COC(=O)c1nc(-c2ccc(I)cc2)c(F)c(N)c1Cl [Compound 118, Methyl 4-amino-6-(4-iodophenyl)-3-chloro-5-fluoropicolinate] | 1 |
| COC(=O)c1nc(-c2ccc(Br)cc2)c(F)c(N)c1Cl [Compound 138, Methyl 4-amino-6-(4-bromophenyl)-3-chloro-5-fluoropicolinate] | 1 |
| COC(=O)c1nc(-c2ccc(C#N)cc2)c(F)c(N)c1Cl [Compound 142] | 4 |

What follows are molecules tested on ALOMY: black-grass (Alopecurus myosuroides) in the same assay as above. Conditions: Alopecurus myosuroides, post-emergence, 504 h; 35 g ai/ha; read-out: Visual Growth Reduction (%) 21 Days After Application ALOMY.
Format: in vivo
Method in brief: as §1

| Compound | pest or weed control at 35 g/ha [%] |
| --- | --- |
| COC(=O)c1nc(-c2ccc(I)cc2)c(F)c(N)c1Cl [Compound 118, Methyl 4-amino-6-(4-iodophenyl)-3-chloro-5-fluoropicolinate] | 60 to 74 |
| COC(=O)c1nc(-c2ccc(Br)cc2)c(F)c(N)c1Cl [Compound 138, Methyl 4-amino-6-(4-bromophenyl)-3-chloro-5-fluoropicolinate] | 75 to 84 |
| COC(=O)c1nc(-c2ccc(C#N)cc2)c(F)c(N)c1Cl [Compound 142] | 0 to 29 |

Same assay, conditions: Alopecurus myosuroides, post-emergence, 504 h; 70 g ai/ha; read-out: Visual Growth Reduction (%) 21 Days After Application ALOMY

| Compound | pest or weed control at 70 g/ha [%] |
| --- | --- |
| COC(=O)c1nc(-c2ccc(I)cc2)c(F)c(N)c1Cl [Compound 118, Methyl 4-amino-6-(4-iodophenyl)-3-chloro-5-fluoropicolinate] | 75 to 84 |
| COC(=O)c1nc(-c2ccc(Br)cc2)c(F)c(N)c1Cl [Compound 138, Methyl 4-amino-6-(4-bromophenyl)-3-chloro-5-fluoropicolinate] | 85 to 94 |
| COC(=O)c1nc(-c2ccc(C#N)cc2)c(F)c(N)c1Cl [Compound 142] | 0 to 29 |

Same assay, conditions: Alopecurus myosuroides, post-emergence, 504 h; 140 g ai/ha; read-out: Visual Growth Reduction (%) 21 Days After Application ALOMY

| Compound | pest or weed control at 140 g/ha [%] |
| --- | --- |
| COC(=O)c1nc(-c2ccc(I)cc2)c(F)c(N)c1Cl [Compound 118, Methyl 4-amino-6-(4-iodophenyl)-3-chloro-5-fluoropicolinate] | 85 to 94 |
| COC(=O)c1nc(-c2ccc(Br)cc2)c(F)c(N)c1Cl [Compound 138, Methyl 4-amino-6-(4-bromophenyl)-3-chloro-5-fluoropicolinate] | 95 to 100 |
| COC(=O)c1nc(-c2ccc(C#N)cc2)c(F)c(N)c1Cl [Compound 142] | 0 to 29 |

Same assay, conditions: probit analysis, dose for growth reduction of 50 percent, 21 days after application

| Compound | GR50 ALOMY [g ai/ha] |
| --- | --- |
| COC(=O)c1nc(-c2ccc(I)cc2)c(F)c(N)c1Cl [Compound 118, Methyl 4-amino-6-(4-iodophenyl)-3-chloro-5-fluoropicolinate] | 25 |
| COC(=O)c1nc(-c2ccc(Br)cc2)c(F)c(N)c1Cl [Compound 138, Methyl 4-amino-6-(4-bromophenyl)-3-chloro-5-fluoropicolinate] | 11 |
| COC(=O)c1nc(-c2ccc(C#N)cc2)c(F)c(N)c1Cl [Compound 142] | >140 |

Same assay, conditions: probit analysis, dose for growth reduction of 80 percent, 21 days after application

| Compound | GR80 ALOMY [g ai/ha] |
| --- | --- |
| COC(=O)c1nc(-c2ccc(I)cc2)c(F)c(N)c1Cl [Compound 118, Methyl 4-amino-6-(4-iodophenyl)-3-chloro-5-fluoropicolinate] | 60 |
| COC(=O)c1nc(-c2ccc(Br)cc2)c(F)c(N)c1Cl [Compound 138, Methyl 4-amino-6-(4-bromophenyl)-3-chloro-5-fluoropicolinate] | 30 |
| COC(=O)c1nc(-c2ccc(C#N)cc2)c(F)c(N)c1Cl [Compound 142] | >140 |
